# Reference: PMC12051030, “Identification of inhibitors of the Salmonella FraB deglycase, a drug target” (FEBS Open Bio, 2025)
# Several values for one entry are separate records, joined by “and”; a condition that tells them apart may be missing. Identical values can stand only once. Like-named read-outs stand apart in the source and are kept apart here.
# Molecular target: His6‐FraB (Salmonella FraB deglycase) (Salmonella enterica subsp. enterica serovar Typhimurium, UniProt Q8ZLD0)
# Test: FraB-G6PD coupled assay, IC50 determination
# Assay type: biochemical
# Procedure: The substrate for FraB, 6‐P‐F‐Asp, was synthesized as previously described. FraB activity was monitored as described previously, with the following changes. The final reaction (30 μL) consisted of 25 mM HEPES pH 8 (at 20 °C), 5 mM MgCl2, 0.1 mM ethylene glycol tetraacetic acid (EGTA), 0.5 mM NAD^+, 1 mU G6PD from Leuconostoc mesenteroides (#LS003981; Worthington Biochemicals, Lakewood, NJ, USA), 100 nM His6‐FraB, and 0–3 mM 6‐P‐F‐Asp. The reaction mixture without substrate (29 μL) was added to one well of a 384‐well polystyrene white μClear® microplate (#781095; Greiner Bio‐One, Monroe, NC, USA) and incubated at 37 °C for 2 min, prior to the addition of 1 μL substrate to initiate the reaction. NADH generation was monitored using either absorbance (340 nm) or fluorescence (350 nm excitation, 450 nm emission) and with either an INFINITE M1000 PRO (Tecan, Mannedorf, Switzerland) or Synergy H1 (Biotek, Winooski, VT, USA) plate reader. Absorbance/fluorescence was plotted against time and slopes were obtained by linear regression analyses. These slopes were converted into initial velocities by dividing them by either the absorbance extinction coefficient (ε340 = 6,220 M ^−1·cm^−1) or the molar fluorescence determined based on standard curves obtained in different plate readers (23,646 RFUs·μM ^−1, Tecan; 285,108 RFUs·μM ^−1, Biotek; Fig. S2). These initial velocities (v o) in turn were plotted against [6‐P‐F‐Asp] to obtain Michaelis–Menten curves that were fit to the formula v o = (V max × [S])/(K m + [S]) by Kaleidagraph (Version 4.5.3; Synergy Software, Reading, PA, USA). The activity of recombinant FraB (Fig. S3) was similar to that as reported previously.
# For determining the IC50 value of each compound, 26 μL of master mix was added to two rows (48 wells) of a 384‐well Greiner plate followed by 3 μL of inhibitor to four wells per concentration (12 concentrations total) using a single‐channel pipette. After mixing with a 12‐channel pipette, the plate was incubated at 20 °C for 20 min. To initiate the reaction, a 12‐channel pipette was used to add and mix 1 μL of 7.5 mM 6‐P‐F‐Asp to all 48 wells. The final reaction (30 μL) consisted of 25 mM HEPES pH 8.0 at 20 °C, 5 mM MgCl2, 0.1 mM EGTA, 0.5 mM NAD^+, 1 mU G6PD, 100 nM His6‐FraB, 0.25 mM 6‐P‐F‐Asp, and varying concentrations of inhibitor (10% v/v DMSO). NADH fluorescence was monitored every 10 s for 10 min total on a SPARK® multi‐mode multiplate reader (Tecan), as described above, and plotted against time. Slopes of the linear range of each curve were converted to initial velocities, as described above, that were then plotted against (inhibitor). Kaleidagraph was used to fit a sigmoidal curve to each plot using the following formula in order to determine the [IC50]: % inhibition = 100/1 + (IC50/[I]), where I is [inhibitor] [48].
# [1] = 0.25 mM 6‐P‐F‐Asp, mean and standard error from two measurements, read-out: IC50
# [2] = Trial 1, 0.25 mM 6-P-F-Asp, unit in Fig. S10, read-out: IC50 (curve fit of IC50 plots, Fig. S10)
# [3] = Trial 2, 0.25 mM 6-P-F-Asp, unit in Fig. S10, read-out: IC50 (curve fit of IC50 plots, Fig. S10)
# Chain of His6‐FraB (Salmonella FraB deglycase) (Q8ZLD0 entry or part of it): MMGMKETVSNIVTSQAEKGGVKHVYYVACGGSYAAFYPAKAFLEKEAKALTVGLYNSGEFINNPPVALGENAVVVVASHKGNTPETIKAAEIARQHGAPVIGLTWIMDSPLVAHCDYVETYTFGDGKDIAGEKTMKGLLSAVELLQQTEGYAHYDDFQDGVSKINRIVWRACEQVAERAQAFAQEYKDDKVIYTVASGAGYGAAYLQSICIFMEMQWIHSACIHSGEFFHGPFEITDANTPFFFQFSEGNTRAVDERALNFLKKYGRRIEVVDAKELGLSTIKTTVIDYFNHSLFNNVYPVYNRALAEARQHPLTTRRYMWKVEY
Compound,IC50 [1] [µM],IC50 [2],IC50 [3],"IC50 (IC50 (curve fit of IC50 plots, Fig. S10), Trial 1, 0.25 mM 6-P-F-Asp, unit in Fig. S10) [µM]","IC50 (IC50 (curve fit of IC50 plots, Fig. S10), Trial 2, 0.25 mM 6-P-F-Asp, unit in Fig. S10) [µM]","IC50 (IC50, 0.25 mM 6‐P‐F‐Asp, mean and standard error from two measurements) [µM]"
"O=c1sn(-c2ccccc2C(F)(F)F)c(=O)n1CC1CC1 [1524:G12, 4‐(cyclopropylmethyl)‐2‐[2‐(trifluoromethyl)phenyl]‐1,2,4‐thiadiazolidine‐3,5‐dione]",2.8 ± 0.4,3.24 µM and 3.2 µM,2.39 µM and 2.4 µM,,,
"Cc1cccc(Cl)c1-n1sc(=O)n(CC2CC2)c1=O [1524:E12, 2‐(2‐chloro‐6‐methylphenyl)‐4‐(cyclopropylmethyl)‐1,2,4‐thiadiazolidine‐3,5‐dione]",4.3,4.28 µM and 4.3 µM,4.29 µM and 4.3 µM,,,
"c1ccc(-c2nnc3sc(C4COc5ccccc5O4)nn23)nc1 (stereo not drawn) [3469:F02, 6‐(2,3‐dihydro‐1,4‐benzodioxin‐3‐yl)‐3‐pyridin‐2‐yl‐[1,2,4]triazolo[3,4‐b][1,3,4]thiadiazole]",42 ± 2.6,44.5 µM and 44.4 µM,39.3 µM,,,
"Fc1ccc(-c2nn3c(-c4ccccn4)nnc3s2)cc1 [3469:N17, 6‐(4‐fluorophenyl)‐3‐pyridin‐2‐yl‐[1,2,4]triazolo[3,4‐b][1,3,4]thiadiazole]",,,,113,86.7,100 ± 13
"CC(C)Cc1cc(-c2nn3c(-c4ccccc4Cl)nnc3s2)n[nH]1 [3470:A09, 3‐(2‐chlorophenyl)‐6‐[5‐(2‐methylpropyl)‐1H‐pyrazol‐3‐yl]‐[1,2,4]triazolo[3,4‐b][1,3,4]thiadiazole]",15.4 ± 0.4,15.8 µM,15 µM,,,
"O=c1[nH][nH]c(=S)n1Cc1ccccc1 [1533:K12, 4‐benzyl‐5‐sulfanylidene‐1,2,4‐triazolidin‐3‐one]",27.6 ± 3.9,31.5 µM,23.7 µM,,,
